# Laboratory results published in ChEMBL document CHEMBL1139443, “Antitumor agents. Part 230: C4'-esters of GL-331 as cytotoxic agents and DNA topoisomerase II inhibitors” (Bioorg Med Chem Lett, 2004).
# Key:
# [1] = Lethal dose against KB cells when treated for 30 min; type: toxicity, cell-based; settings: human, read-out: LD50
# [2] = system: KB; test: Effective dose required for inhibition of KB-7d cell replication after 3 days of continuous treatment; type: functional; settings: Homo sapiens, 72 h, read-out: ED50 (the source's name)
# [3] = system: KB; test: Compound was evaluated for cytotoxicity against KB cells at 10 uM concentration; type: functional; settings: Homo sapiens
# [4] = Lethal dose against KB-7d cells when treated for 30 min; type: toxicity, cell-based; settings: human, read-out: LD50
# [5] = system: KB; test: Compound was evaluated for cytotoxicity against KB-7d cells at 10 uM concentration; type: functional; settings: Homo sapiens
# [6] = system: KB; test: Lethal dose against KB-7d cells when treated for 30 min; NMD = not markedly different from control.; type: toxicity, cell-based; settings: human, 0.5 h
# [7] = system: KB; test: Compound was evaluated for cytotoxicity against KB-7d cells at 10 uM concentration; NMD = not markedly different from control.; type: functional, cell-based; settings: Homo sapiens
Structure (SMILES),CC50 at 0.5 h [1] [µM],EC50 [2] [µM],cytotoxicity at 10 µM [3] [%],CC50 at 0.5 h [4] [µM],cytotoxicity at 10 µM [5] [%],LD50 [6],Cytotoxicity [7]
COc1cc([C@@H]2c3cc4c(cc3[C@@H](Nc3ccc([N+](=O)[O-])cc3)[C@H]3COC(=O)[C@H]23)OCO4)cc(OC)c1OC(=O)C(F)(F)F,< 10,1.5,62,< 10,90,,
COc1cc([C@@H]2c3cc4c(cc3[C@@H](Nc3ccc([N+](=O)[O-])cc3)[C@H]3COC(=O)[C@H]23)OCO4)cc(OC)c1O,< 10,1.5,66,< 10,94,,
COc1cc([C@@H]2c3cc4c(cc3[C@@H](O[C@@H]3O[C@@H]5CO[C@@H](C)O[C@H]5[C@H](O)[C@H]3O)[C@H]3COC(=O)[C@H]23)OCO4)cc(OC)c1O [ETOPOSIDE],50,11,52,,,Not Markedly Different,Not Markedly Different
COc1cc([C@@H]2c3cc4c(cc3[C@@H](Nc3ccc([N+](=O)[O-])cc3)[C@H]3COC(=O)[C@H]23)OCO4)cc(OC)c1OC(C)=O,> 20,2.9,28,< 10,60,,
COc1cc([C@@H]2c3cc4c(cc3[C@@H](Nc3ccc([N+](=O)[O-])cc3)[C@H]3COC(=O)[C@H]23)OCO4)cc(OC)c1OC(=O)CCl,> 10,2.3,43,> 10,46,,
